The record followed here is a melting point compilation (Tetko et al.; mined from patent text by program, amines drawn as free bases though some values may be those of a salt).

Residues, ends and D or L forms follow the SMILES beside them. *: point of attachment. Boc = CC(C)(C)OC(=O)*; Bn = c1ccc(C*)cc1 A value given as a limit tells only on which side of the number the result lay.

Consider `CCOP(=O)(CCN1CCNc2c1c(=O)c2=O)OCC`, for which the melting point – broadly, the temperature, or range, at which the solid turns liquid – lay in the range of 115 to 116 °C.
Then `CC(Cc1ccc(Cl)c(OC(F)(F)C(F)F)c1)NC(=O)C1C2=C(C=CC1(O)c1ccc(F)cc1)CCCC=C2` (configuration not stated), with 174 to 175 °C; and `C[C@@H](NC(=O)c1csc(-c2ccc(C(F)(F)F)cc2)n1)[C@](O)(Cn1cncn1)c1ccc(F)cc1F`, with 167 to 168 °C; and `CC(C)c1nn(-c2ccc(C(F)(F)F)cn2)cc1CCCOc1c(Cl)cccc1CC(=O)O`, with 141 to 142 °C.
Then `CC(C)(C)OC(=O)C(CCC(N)=O)N1Cc2c(O)cccc2C1=O` (configuration not stated), with 198 to 200 °C; and `CCc1cc(-c2ccncc2)cc(CC)c1C(C(N)=O)C(N)=O`, with 184 to 186 °C; and `CCCC(=O)c1ccc(OCCC(=O)O)c(Cl)c1Cl`, with 138 to 139 °C.
For the compound `N#Cc1cc(Br)cc2ccc(O)cc12`, the melting point is 222 to 224 °C.
As for `COc1nc(C)cnc1NS(=O)(=O)c1cccnc1-c1ccc(C)cc1`, the figure is 184 to 185 °C; as for `Oc1ccc([C@@H]2C[C@H]2c2ccc(O)cc2)cc1` (relative stereo), 190 to 191 °C.
As for `NC(=NC(=O)Cn1c(Cl)ccc1Cl)NC(=O)c1ccc(Cl)cc1`, the figure is 198 to 200 °C; as for `CCCCCCCCCCCCCCCCCCCNC(=O)C1CSC(c2cccnc2)N1` (configuration not stated), 108 to 110 °C; as for `CCOc1ccc(-c2ccc3c(c2)C=C(C(=O)Nc2ccc(CN(C)C4CCOCC4)cc2)CCN3C=O)cc1`, 211 to 215 °C.
Then `CC1(C)[C@@H](Cn2nccn2)CC[C@@]1(C)NCC(=O)N1C[C@@H](F)C[C@H]1C#N`, with 84 to 87 °C; and `CSc1nccn1N=Cc1cc(C(C)(C)C)c(O)c(C(C)(C)C)c1`, with 181 to 183 °C; and `CCOC(=O)Cn1c(-c2ccc(Cl)cc2)nc2cccnc21`, with 123 to 124 °C.
With `CCOC(=O)c1c(S(N)(=O)=O)c2ccccc2n1CC`, the melting point was in the range of 148 to 149 °C.
Then `CC(C)c1ccc(C(=O)O)cc1S(N)(=O)=O`, with 245 °C.
`CN(C)CCNC(=O)N1CCN(c2ccc(Br)cc2)CC1`: the melting point lay in the range of 133 to 135 °C.
Then `C[C@@](O)(CO)COc1cccc(-c2noc3ccsc23)c1`, with 97 to 98 °C; and `CCOC(=O)/C(=C\Nc1cc(OC)cc(OC)c1)c1ccccc1`, with 75 to 76 °C; and `CN1CCc2c(c3ccccc3n2CCc2nc(-c3ccccc3)cs2)C1`, with 128 to 130 °C.
As for `CC(C)C1=CC(C(C)C)(S(=O)(=O)n2c(C3(O)C=CC(=O)C=C3)cc3ccccc32)CC(C(C)C)=C1` (configuration not stated), the figure is 55 to 57 °C; as for `COc1ccc(S(N)(=O)=O)c(-c2cccc3c2Nc2ccc(F)cc2S3)c1`, 166 to 168 °C; as for `CC(C)C1(CO)Cc2cc(OCC(=O)O)c(Cl)c(Cl)c2C1=O` (configuration not stated), 200 to 202 °C.
As for `O=C(O)[C@H](Cc1ccccc1)Nc1c(N2CCN(c3ccccc3)CC2)c(=O)c1=O`, the figure is 165 to 167 °C.
Turning to `O=C(O)CCC1Cc2ccccc2C1`, the melting point lay within 99 to 100 °C.
Compound `CN(C)C1CSC(C#N)(c2ccc(Cl)cc2)SC1` (configuration not stated) showed a melting point of 110 to 111 °C.
In turn, `CC(=O)Nc1ccc(CSc2nc3cnccc3[nH]2)cc1` displayed a melting point of 231 to 234 °C.
Then `N#CCCNC(=O)c1cccc(-c2cccc3c2CN(Cc2cccc(C(F)(F)F)c2)C3=O)c1`, with 191 to 192 °C.
Then `NS(=O)(=O)c1ccc(-n2nc(C(F)F)cc2-c2nc3cccc(Cl)c3s2)cc1`, with 238 to 239 °C; and `NOCCc1cn(C(c2ccccc2)(c2ccccc2)c2ccccc2)cn1`, with 93 °C; and `CCCCCSc1cc(C(=O)O)cc(N)c1Oc1ccccc1`, with 98 °C.
Compound `COCc1nc2c(C(F)(F)F)cccc2c(O)c1C(=O)Nc1nccs1` registered a melting point of 260 °C.
Compound `Oc1ccccc1CNCCCCCCNCc1ccccc1O` showed a melting point of 72 to 73 °C.
`COc1cc(-c2c(Cl)c(CN3CCCC3=O)nc3sc4c(c23)CCN(Cc2ccccc2)C4)ccc1OC(C)C` registered a melting point of 140 to 141 °C.
Then `CN(C)CCNc1cc(Cl)nc(-c2ccc(Cl)c(Cl)c2)n1`, with 99.5 to 102 °C; and `CC(=O)Nc1ccc(F)cc1C(=O)O`, with 168 to 170 °C; and `CS(=O)(=O)c1ccc(-c2cnn(CC(=O)c3ccc(C(=O)O)cc3)c(=O)c2-c2ccc(F)cc2)cc1`, with 239 to 241 °C.
Consider `CC(C)(C)OC(=O)c1ncn2c1[C@@H]1CC=CN1C(=O)c1c(Cl)cccc1-2`, for which the melting point lay within 235 to 237 °C.
As for `CNC(=O)N(C)c1nc(CC(=O)Nc2cccc(C(F)(F)F)c2)cs1`, the figure is 125 to 127 °C; as for `Nc1ccc(S(=O)(=O)Nc2ccc(Cl)cc2Cl)cc1C(=O)O`, 224 °C; as for `CCCCCC(=O)NCc1nc(-c2ccc3c(c2)Nc2ccccc2S3)cs1`, 192 to 194 °C.
With `CN[C@@H]1CCN(c2ccc3c(NC(=O)CC4CCCCC4)c(Cl)ccc3n2)C1`, the melting point is 169 °C.
For `O=C1NCCc2[nH]c3cc(F)ccc3c21`, the melting point is 213 to 215 °C.
In turn, `O=C(O)/C=C/c1ccc(C(=O)c2c(-c3ccc(O)cc3)sc3cc(O)ccc23)cc1` registered a melting point of 155 to 160 °C.
Compound `O=C(O)c1cnn2c(C(F)F)cc(-c3ccc(Cl)cc3)nc12` came in with a melting point of 232 °C.
The compound `CCOC(=O)/C=C/C=C/c1cc2cc(N(C)C)ccc2s1` yielded a melting point of 140 to 142 °C.
`CC(=O)Nc1c[nH]c(=S)n1C1CCc2ccccc2C1` (configuration not stated) yielded a melting point of 196 to 200 °C.
In turn, `CC(C)CC(NC(=O)C(Cc1ccc(OCc2ccccc2)cc1)NC(=O)OC(C)(C)C)C(=O)O` (configuration not stated) (Boc-Tyr(Bn)-Leu-OH; configuration not given here) displayed a melting point of 90 to 94 °C.
Consider `N#Cc1ccc(-c2cn(-c3ccc(Br)cc3)c(SCc3cccnc3)n2)cc1`, for which the melting point was 177 to 178 °C.
The compound `CC1(C)CCC(C)(C)c2cc(-c3cc(-c4ccc(C(=O)O)cc4)ccc3-c3cccc(O)c3)ccc21` returned a melting point of less than 70 °C.
`CCn1c(=O)ccc2cnc(Nc3ccccc3)nc21` registered a melting point of 203 to 204 °C.
`CC(C)(C)OC(=O)N1C(C(=O)O)CSC1c1cccnc1` (configuration not stated) came in with a melting point of 167 to 169 °C.
As for `CCN(CC)CCNC(=O)c1cc(Cl)c(N)cc1OCC(C)O` (configuration not stated), the figure is 149 to 150 °C; as for `CC(C)c1ccc(S(=O)(=O)Nc2ccc(N3CCC(NCC(O)COc4ccc(O)c(S(C)=O)c4)CC3)nc2)cc1` (configuration not stated), 128 to 130 °C; as for `CCN(CC)CCN1NC(N)=c2cc3c(nc21)=CC(O)(OC)C=C3` (configuration not stated), 232 to 235 °C.
Then `CCC(=O)N1CCC(NC(=O)Nc2ccc(Cl)c(C(F)(F)F)c2)CC1`, with 182 to 184 °C; and `COc1ccc(-c2cccc(Cl)c2)cc1Cn1cncn1`, with 78.2 to 78.4 °C.
Consider `O=C1CN(Cc2ccccn2)CC(=O)N1CCCN1CCN(c2ccc(F)cc2)CC1`, for which the melting point was 90 °C.
Then `Cc1nc(C(C)C)c(S(=O)(=O)c2ccccc2)n1COCc1ccccc1`, with 116 to 117 °C; and `c1ccc(COc2ccc(NC3Cc4ccccc4C3)cc2)cc1`, with 72 to 75 °C; and `OCc1cc(Cl)c(O)cc1F`, with 125 to 127 °C.
Then `Cc1c(-c2ccccc2)oc2c(CO)cccc2c1=O`, with 145 to 147 °C.
`CCCCCS(=O)(=O)NC(=O)CCc1cc(OCCCC)nn1Cc1ccc(Cl)cc1Cl` had a melting point of 104 to 105 °C.
Consider `CCOc1cc(OCCCc2cn(-c3ccc(C(F)(F)F)cn3)nc2OC(C)C)ccc1CCC(=O)O`, for which the melting point fell in the range of 128 to 129 °C.
As for `CCn1c(=O)c2[nH]c(/C=C/c3cccc(OC)c3[N+](=O)[O-])nc2n(CC)c1=O`, the melting point was greater than 285 °C.
As for `O=C(Nc1ccc(C(F)(F)F)cc1)Nc1cccc(S(=O)(=O)Nc2ccc(Cl)cc2)c1`, the figure is 196 to 198 °C; as for `Oc1ccc(Oc2cccc(-c3nnc(Nc4ccc(Cl)c(Cl)c4)s3)c2)cc1`, 224 to 226 °C.
Regarding `CCOC(=O)c1ncn2c1c(C)nc1ccccc12`, the melting point lay within 192 to 193 °C.
Then `CCCCCCCCCCCCCCOc1ccccc1NS(=O)(=O)c1ccc2c(N=Nc3ccc(OC)cc3)c(O)ccc2c1`, with 118 to 121 °C; and `Cc1cc(C)c(-c2csc3c(Cl)cc(C)nc23)c(C)c1`, with 129 to 131 °C.
As for `CC(=O)Nc1ccc(N2C(=O)CCCC2c2ccc(Cl)c(Cl)c2)cc1` (configuration not stated), the melting point was 267 to 268 °C.
For the compound `CCOP(=O)(/C=C/c1cn(-c2ccccc2)nc1OCc1ccc(OCc2nc(-c3ccc(OC)c(C(=O)O)c3)oc2C)c(OC)c1)OCC`, the melting point lay in the range of 171 to 172 °C.
Then `CCOC(=O)c1snc(C(=O)OC(C)(C)C)c1N`, with 68 to 69 °C.
Then `CN1CCC(O)(c2ccc(F)cc2F)C1` (configuration not stated), with 117 to 119 °C; and `Clc1ccc(C(CBr)OC2CCCC(COc3ccc(Cl)cc3Cl)O2)cc1` (configuration not stated), with 86 to 87 °C; and `Cc1ccc([N+](=O)[O-])c(Cl)c1C#N`, with 106 to 107 °C.
Consider `c1ccc2c(c1)N=C(c1ccncc1)c1cccc3c1N2CC3`, for which the melting point was in the range of 152 to 153 °C.
`O=C1Nc2ccc(I)cc2C1=NNC(=O)c1ccc(OCc2ccccc2)cc1` gave a melting point of 298 °C.
Then `CC(=O)C(C)Sc1cc(C(C)(C)C)c(O)c(C(C)(C)C)c1` (configuration not stated), with 94 to 97 °C; and `COC(=O)CCC(=O)c1ccc(-c2ccc(Br)cc2)cc1`, with 115 to 116 °C.
Then `CC(C)(N)c1ccc(-c2nc(Nc3ccc(CCN4CCCCC4)cc3)ncc2C#N)cc1`, with 114 °C.
As to `CC(C)C1(C)NC(c2nc3ccc(Cl)cc3cc2C(=O)O)=NC1=O` (configuration not stated), the melting point was 234 to 237 °C.
As for `COC(=O)c1ccccc1S(=O)(=O)NCC(=O)Nc1cc(C)on1`, the figure is 153 to 156 °C.
Consider `CN1OC(COc2ccccc2)CC1(Cn1ccnc1)c1ccc2ccccc2c1` (configuration not stated), for which the melting point lay within 176 to 178 °C.
Compound `N#Cc1ccc2[nH]c3c(ccc4cc[nH]c43)c2c1` showed a melting point greater than 250 °C.
